From patent US8415378B2, “Isoxazol-3(2H)-one analogs as therapeutic agents” (AstraZeneca AB, priority 2009, dated 2013) come the findings set out here.

T1 sequence (P00747 20-810 limits assumed): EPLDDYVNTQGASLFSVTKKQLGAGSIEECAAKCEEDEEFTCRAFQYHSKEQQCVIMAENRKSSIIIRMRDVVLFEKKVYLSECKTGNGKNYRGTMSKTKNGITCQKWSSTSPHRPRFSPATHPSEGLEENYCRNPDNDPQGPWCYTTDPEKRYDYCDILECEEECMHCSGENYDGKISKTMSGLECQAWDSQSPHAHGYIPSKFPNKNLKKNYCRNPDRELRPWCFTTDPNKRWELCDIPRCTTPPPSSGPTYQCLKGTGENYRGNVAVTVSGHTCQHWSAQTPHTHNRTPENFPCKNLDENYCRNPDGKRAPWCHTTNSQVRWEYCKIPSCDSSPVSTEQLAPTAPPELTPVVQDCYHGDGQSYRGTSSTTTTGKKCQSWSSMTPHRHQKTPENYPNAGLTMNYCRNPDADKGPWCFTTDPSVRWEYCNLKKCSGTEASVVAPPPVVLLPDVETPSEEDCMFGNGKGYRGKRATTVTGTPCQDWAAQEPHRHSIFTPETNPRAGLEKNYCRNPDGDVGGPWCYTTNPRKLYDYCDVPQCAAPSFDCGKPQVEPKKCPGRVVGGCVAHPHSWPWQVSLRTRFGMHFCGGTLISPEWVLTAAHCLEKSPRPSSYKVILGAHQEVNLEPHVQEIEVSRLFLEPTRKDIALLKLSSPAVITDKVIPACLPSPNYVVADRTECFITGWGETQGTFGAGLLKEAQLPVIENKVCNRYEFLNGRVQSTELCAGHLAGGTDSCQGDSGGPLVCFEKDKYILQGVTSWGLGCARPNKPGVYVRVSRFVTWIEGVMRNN

The assay has as its target T1, human Glu-plasminogen (Homo sapiens, UniProt P00747).
T1 construct: human Glu-plasminogen; purchased Chromogenix, Italy
The assay can be described thus: Clot-lysis buffer assay. The assay is classed as biochemical. The procedure:
The assay method used for evaluating biological activity of the compounds according to the invention was Clot-lysis buffer assay.
Tested substance were added to the reaction mixture in 10% DMSO. Reaction was started by the addition of thrombin.
Measured according to the Clot-lysis buffer assay described above.
One may read the IC50 as the concentration needed to halve the response being measured. The low end stands for greater potency, the high end for weaker potency. As for `O=c1cc([C@H]2CCN[C@H](Cc3ccc(C(F)(F)F)cc3)C2)o[nH]1` [Example 105, 5-((2S,4S)-2-(4-(Trifluoromethyl)benzyl)piperidin-4-yl)isoxazol-3(2H)-one], it took 7.2 µM to reach half-maximal inhibition (IC50).
`O=c1cc([C@@H]2CCN[C@@H](c3ccc(Cl)cc3)C2)o[nH]1` (relative stereo) [Example 29, 5-(Trans-2-(4-chlorophenyl)piperidin-4-yl)isoxazol-3(2H)-one] yielded an IC50 of 24 µM. Against the preceding compound, the IC50 is about 3.3-fold higher.
The same measure for `O=c1cc([C@H]2CCN[C@@H](c3ccc(Cl)cc3F)C2)o[nH]1` [Example 45, 5-((2R,4S)-2-(4-Chloro-2-fluorophenyl)piperidin-4-yl)isoxazol-3(2H)-one]: 2.35 µM.
The same measure for `O=c1cc([C@@H]2CCN[C@@H](Cc3ccc(C(F)(F)F)c(F)c3)C2)o[nH]1` (relative stereo) [Example 142, 5-(Trans-2-(3-fluoro-4-(trifluoromethyl)benzyl)piperidin-4-yl)isoxazol-3(2H)-one]: 1.8 µM; for `CS(=O)(=O)c1ccc(C[C@H]2C[C@@H](c3cc(=O)[nH]o3)CCN2)cc1` [Example 117, 5-((2R,4S)-2-(4-(Methylsulfonyl)benzyl)piperidin-4-yl)isoxazol-3(2H)-one]: 0.8 µM.
The compound `CC(C)(C)c1cccc([C@H]2C[C@@H](c3cc(=O)[nH]o3)CCN2)c1` [Example 36, 5-((2R,4S)-2-(3-tert-Butylphenyl)piperidin-4-yl)isoxazol-3(2H)-one] came in with an IC50 of 1.9 µM.
The same measure for `O=c1cc([C@H]2CCN[C@@H](c3ccc(Cl)cc3)C2)o[nH]1` [Example 27, 5-((2R,4S)-2-(4-Chlorophenyl)piperidin-4-yl)isoxazol-3(2H)-one]: 1.5 µM; for `Cc1cc([C@H]2C[C@H](c3cc(=O)[nH]o3)CCN2)ccc1C(F)(F)F` (relative stereo) [Example 69, 5-(Trans-2-(3-methyl-4-(trifluoromethyl)phenyl)piperidin-4-yl)isoxazol-3(2H)-one]: 92.5 µM; for `CC(C)(C[C@H]1C[C@@H](c2cc(=O)[nH]o2)CCN1)c1ccccc1` [Example 19, 5-((2R,4S)-2-(2-Methyl-2-phenylpropyl)piperidin-4-yl)isoxazol-3(2H)-one]: 1.6 µM.
As for `O=c1cc([C@@H]2CCN[C@H](c3ccc(C(F)(F)F)c(F)c3)C2)o[nH]1` [Example 76, 5-((2S,4R)-2-(3-Fluoro-4-(trifluoromethyl)phenyl)piperidin-4-yl)isoxazol-3(2H)-one], the 50% inhibitory concentration (IC50) was 190 µM. This IC50 is about 120-fold higher than that of the compound before.
Regarding `O=c1cc([C@@H]2CCN[C@H](c3cc(Cl)cc(Cl)c3)C2)o[nH]1` [Example 56, 5-((2S,4R)-2-(3,5-Dichlorophenyl)piperidin-4-yl)isoxazol-3(2H)-one], the IC50 was found to be 43.8 µM. This IC50 lies about 4.3-fold lower than the previous one.
The same measure for `O=c1cc([C@@H]2CCN[C@@H](c3ccc(Cl)c(F)c3)C2)o[nH]1` (relative stereo) [Example 50, 5-(Trans-2-(4-chloro-3-fluorophenyl)piperidin-4-yl)isoxazol-3(2H)-one]: 5.3 µM; for `O=c1cc([C@@H]2CCN[C@@H](c3ccc(F)cc3Cl)C2)o[nH]1` (relative stereo) [Example 48, 5-(Trans-2-(2-chloro-4-fluorophenyl)piperidin-4-yl)isoxazol-3(2H)-one]: 44.3 µM; for `O=c1cc([C@H]2CCN[C@H](Cc3ccc(F)c(F)c3)C2)o[nH]1` [Example 122, 5-((2S,4S)-2-(3,4-Difluorobenzyl)piperidin-4-yl)isoxazol-3(2H)-one]: 4.4 µM.
Turning to `CC(C)(C)c1cc(C[C@@H]2C[C@H](c3cc(=O)[nH]o3)CCN2)cc(C(C)(C)C)c1` [Example 147, 5-((2S,4R)-2-(3,5-Di-tert-butylbenzyl)piperidin-4-yl)isoxazol-3(2H)-one], the 50% inhibitory concentration (IC50) turned out to be 44.6 µM. Compared with the last compound, the IC50 is about 10-fold higher.
`O=c1cc([C@H]2CCN[C@@H](c3ccccc3)C2)o[nH]1` [Example 77, 5-((2R,4S)-2-Phenylpiperidin-4-yl)isoxazol-3(2H)-one] came in with an IC50 of 8 µM.
For `O=c1cc([C@H]2CCN[C@@H](c3ccc(F)cc3Cl)C2)o[nH]1` [Example 47, 5-((2R,4S)-2-(2-Chloro-4-fluorophenyl)piperidin-4-yl)isoxazol-3(2H)-one] the value was 1.4 µM.
Take `O=c1cc([C@@H]2CCN[C@H](Cc3cc(F)c(F)c(F)c3)C2)o[nH]1` [Example 144, 5-((2S,4R)-2-(3,4,5-Trifluorobenzyl)piperidin-4-yl)isoxazol-3(2H)-one]: inhibition was half-maximal at 88.2 µM (IC50).
`O=c1cc([C@H]2CCN[C@@H](c3cc(F)c(F)cc3F)C2)o[nH]1` [Example 63, 5-((2R,4S)-2-(2,4,5-Trifluorophenyl)piperidin-4-yl)isoxazol-3(2H)-one] displayed an IC50 of 3.22 µM. This IC50 is about 27-fold lower than that of the compound before.
Turning to `Cn1nnc([C@H]2C[C@H](c3cc(=O)[nH]o3)CCN2)n1` (relative stereo) [Example 82, 5-(Trans-2-(2-methyl-2H-tetrazol-5-yl)piperidin-4-yl)isoxazol-3(2H)-one], the IC50 was 20.3 µM.
For `O=c1cc([C@@H]2CCN[C@H](c3cccc(C(F)(F)F)c3)C2)o[nH]1` [Example 31, 5-((2S,4R)-2-(3-(Trifluoromethyl)phenyl)piperidin-4-yl)isoxazol-3(2H)-one], the IC50 was determined as 33.1 µM.
The same measure for `O=c1cc([C@@H]2CCN[C@@H](Cc3cc(F)cc(C(F)(F)F)c3)C2)o[nH]1` (relative stereo) [Example 139, 5-(Trans-2-(3-fluoro-5-(trifluoromethyl)benzyl)piperidin-4-yl)isoxazol-3(2H)-one]: 2.9 µM; for `O=c1cc([C@@H]2CCN[C@@H](c3ccc(OC(F)(F)F)cc3F)C2)o[nH]1` (relative stereo) [Example 59, 5-(Trans-2-(2-fluoro-4-(trifluoromethoxy)phenyl)piperidin-4-yl)isoxazol-3(2H)-one]: 70.7 µM.
For `O=c1cc([C@H]2CCN[C@@H](C3CCCCC3)C2)o[nH]1` [Example 79, 5-((2R,4S)-2-Cyclohexylpiperidin-4-yl)isoxazol-3(2H)-one], the midpoint of inhibition, the IC50, lay at 3.3 µM. This IC50 lies about 21-fold lower than the previous one.
For `O=c1cc([C@@H]2CCN[C@@H](Cc3ccc(F)cc3F)C2)o[nH]1` (relative stereo) [Example 136, 5-(Trans-2-(2,4-difluorobenzyl)piperidin-4-yl)isoxazol-3(2H)-one] the value was 4.94 µM.
On to `CS(=O)(=O)c1ccc(C[C@@H]2C[C@H](c3cc(=O)[nH]o3)CCN2)cc1` [Example 118, 5-((2S,4R)-2-(4-(Methylsulfonyl)benzyl)piperidin-4-yl)isoxazol-3(2H)-one], for which the IC50 stood at 225 µM.
`O=c1cc([C@H]2CCN[C@H](C3CCCCC3)C2)o[nH]1` [Example 80, 5-((2S,4S)-2-Cyclohexylpiperidin-4-yl)isoxazol-3(2H)-one] registered a concentration for half-maximal inhibition (IC50) of 44 µM.
The same measure for `O=c1cc([C@@H]2CCN[C@H](CCc3ccc(F)cc3)C2)o[nH]1` [Example 93, 5-((2R,4R)-2-(4-Fluorophenethyl)piperidin-4-yl)isoxazol-3(2H)-one]: 69.8 µM.
For `O=c1cc([C@@H]2CCN[C@@H](Cc3ccc(F)c(F)c3)C2)o[nH]1` [Example 123, 5-((2R,4R)-2-(3,4-Difluorobenzyl)piperidin-4-yl)isoxazol-3(2H)-one] the value was 147 µM; for `O=c1cc([C@@H]2CCN[C@@H](CCc3ccc(F)cc3)C2)o[nH]1` (relative stereo) [Example 94, 5-(Trans-2-(4-fluorophenethyl)piperidin-4-yl)isoxazol-3(2H)-one], 4.6 µM.
